O=C(O)CCCC[C@@H]1SC[C@@H]2NC(=O)N[C@@H]21
Settings | solubility (mole fraction)
in DMF, 298.65 K | 0.00356
in DMF, 303.25 K | 0.00413
in DMF, 308.15 K | 0.00497
in DMF, 313.15 K | 0.00603
in DMF, 318.15 K | 0.0075
in DMF, 323.25 K | 0.00902
in DMF, 328.15 K | 0.0107
in DMF, 333.15 K | 0.0128
in DMSO, 298.15 K | 0.0378
in DMSO, 303.15 K | 0.0425
in DMSO, 308.15 K | 0.0479
in DMSO, 313.15 K | 0.053
in DMSO, 318.05 K | 0.0582
in DMSO, 322.75 K | 0.0633
in DMSO, 327.65 K | 0.0687
in DMSO, 332.85 K | 0.0748
in acetic acid, 298.15 K | 0.00226
in acetic acid, 303.15 K | 0.00283
in acetic acid, 308.15 K | 0.0035
in acetic acid, 313.25 K | 0.00424
in acetic acid, 317.95 K | 0.00509
in acetic acid, 323.45 K | 0.00646
in acetic acid, 327.85 K | 0.00766
in acetic acid, 333.25 K | 0.00922
in ethanol, 298.15 K | 6.35e-05
in ethanol, 302.95 K | 8.69e-05
in ethanol, 308.85 K | 0.000133
in ethanol, 313.95 K | 0.000176
in ethanol, 318.45 K | 0.00023
in ethanol, 323.55 K | 0.000309
in ethanol, 329.35 K | 0.000442
in ethanol, 333.85 K | 0.000582
in methanol, 298.15 K | 6.92e-05
in methanol, 302.75 K | 9.37e-05
in methanol, 308.05 K | 0.000143
in methanol, 313.25 K | 0.000208
in methanol, 317.85 K | 0.000298
in methanol, 323.55 K | 0.00046
in methanol, 327.65 K | 0.000601
in methanol, 332.95 K | 0.000862
in water, 298.15 K | 4.97e-06
in water, 303.15 K | 8.18e-06
in water, 308.05 K | 1.28e-05
in water, 312.75 K | 2.06e-05
in water, 318.55 K | 3.52e-05
in water, 323.15 K | 5.42e-05
in water, 328.95 K | 9.12e-05
in water, 332.95 K | 0.000129

Reference: BigSolDB 2.1
